Results as given in PubChem BioAssay (NCI).
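Grown in 96-well plates, cells were treated for 48 hours with each compound at five concentrations. Insufficient inhibition: endpoint recorded as highest concentration tested. GI50: concentration for 50% inhibition of growth. TGI marks complete inhibition of growth.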

Experiments:
Assay in all cases: NCI tumour cell line growth inhibition, 48 h
[1] = tested on: 786-0 renal
[2] = tested on: CAKI-1 renal
[3] = tested on: COLO 205 colon
[4] = tested on: HL-60(TB) leukemia
[5] = tested on: HT29 colon
[6] = tested on: NCI/ADR-RES ovarian
[7] = tested on: OVCAR-3 ovarian
[8] = tested on: PC-3 prostate
[9] = tested on: SK-MEL-5 melanoma
[10] = tested on: SNB-75 CNS

| Structure (SMILES) | GI50 [1] [µM] | TGI [1] [µM] | GI50 [2] [µM] | TGI [2] [µM] | GI50 [3] [µM] | TGI [3] [µM] | GI50 [4] [µM] | TGI [4] [µM] | GI50 [5] [µM] | TGI [5] [µM] | GI50 [6] [µM] | TGI [6] [µM] | GI50 [7] [µM] | TGI [7] [µM] | GI50 [8] [µM] | TGI [8] [µM] | GI50 [9] [µM] | TGI [9] [µM] | TGI [10] [µM] | GI50 [10] [µM] |
| --- | --- | --- | --- | --- | --- | --- | --- | --- | --- | --- | --- | --- | --- | --- | --- | --- | --- | --- | --- | --- |
| C#C[C@]1(O)CC[C@H]2[C@@H]3CC=C4c5nc(N)sc5CC[C@]4(C)[C@H]3CC[C@@]21C | 2.06 | 4.41 | 3.08 | 14.8 | 3.66 | 15.8 | 2.65 | 7.04 | 3.04 | 12.4 | 3.19 | 16 | 3.1 | 9.84 | 3.66 | 19.7 | 1.91 | 3.63 |  |  |
| COc1cccc(/C=N\NC(=O)C(C)SC(C)C(=O)N/N=C/c2cccc(OC)c2)c1 (centres undefined) |  | 31.6 |  | > 80.8 |  | > 63.9 |  | > 100 |  | > 100 |  |  |  | 39.3 |  |  |  | > 100 | 33.2 |  |
| C[C@H]1CC[P+](C)(c2ccccc2)C1 (some centres undefined) |  | > 100 |  |  |  | > 100 |  | > 100 |  | > 100 |  |  |  | > 100 |  |  |  | > 100 | > 100 |  |
| C=C1C[C@@H]2O[C@H]3[C@H]4[C@@H](CC[C@@](C)(OC(=O)CCC)[C@H]42)[C@@H](C)C(=O)O[C@@]3(C)CC[C@H]1OO | > 100 | > 100 | 4.8 | 19.1 | 21.3 | 37.4 | 12.2 | 28.1 | 16.9 | 33.6 | 16.9 | 31.5 | 13.9 | 29.2 |  |  | 17.8 | 32.8 | 44.6 | 20.5 |
| O=c1cccc(Cl)[nH]1 |  | > 100 |  | > 100 |  | > 100 |  |  |  | > 100 |  | > 100 |  | > 100 |  | > 100 |  | > 100 | > 100 |  |
| COc1cc2cc(Oc3cccc(NC(=O)Nc4cc(C(F)(F)F)cc(C(F)(F)F)c4)c3)c(C)nc2cc1OC | 1.61 | 3.09 | 1.41 | 5.1 | 1.79 | 3.58 | 1.58 | 4.37 | 1.52 | 3.46 |  |  | 0.488 | 1.7 | 0.423 | 2.48 | 1.62 | 3.28 | 5.05 | 1.73 |
| CN(C)c1ccc(C(O)C2=CC(=O)c3ccccc3C2=O)cc1 (centres undefined) | 14.4 | 34.6 | 7.87 | 32.1 |  |  |  |  |  |  | > 100 | > 100 | 2.75 |  |  |  |  |  |  |  |
| N#Cc1cc(S(=O)(=O)Nc2nc3cc(Cl)ccc3o2)c(SCc2ccccc2)cc1Cl | 15.7 | 29.1 | 18.5 | 35.1 | 13 | 25.7 |  |  | 17.3 | 31 | 13.8 | 26.7 | 13.5 | 26.4 | 15.1 | 28.3 | 15.1 | 28.3 |  |  |
| Cc1cc(Cl)ccc1NC(=O)C1C(=O)N(c2ccc(Cl)cc2C)C(=O)/C1=N\NC(N)=S (centres undefined) |  | > 100 |  |  |  | > 100 |  | 51.8 |  | 35.4 |  |  |  | > 100 |  |  |  | > 100 |  |  |
| Cc1ccc2ccc(-c3ccccc3)c3c2c1C(=O)c1ccccc1C3=O |  | > 100 |  |  |  | > 100 |  | > 100 |  | > 100 |  |  |  | > 100 |  |  |  | > 100 | 68.7 |  |
| Cn1cnnc1[S-].[Au+].c1ccc([PH+](c2ccccc2)c2ccccc2)cc1 | 1.72 | 3.15 | 1.5 | 2.82 |  |  | 1.48 | 4.44 |  |  |  |  | 1.79 | 3.18 | 1.52 | 3.02 | 1.46 | 2.91 | 2.74 | 1.43 |
| N#CCc1cccc(CC#N)c1Br |  | > 100 |  | > 100 |  | > 100 |  | > 100 |  | > 100 |  |  |  | > 100 |  |  |  |  | > 100 |  |
| OCCN(CO)CO |  | > 100 |  | > 100 |  | > 100 |  |  |  | > 100 |  | > 100 |  | > 100 |  | > 100 |  | > 100 | > 100 |  |
| CSC1=Nc2c(c(C)c(-c3ccccc3)n2COC(CO)CO)C2=NC(=O)CC(C)N12 (centres undefined) | > 100 | > 100 | > 100 | > 100 | > 100 | > 100 |  |  | > 100 | > 100 | > 100 | > 100 | > 100 | > 100 | > 100 | > 100 | > 100 | > 100 | > 100 | 85.3 |
| Cc1cc(S(N)(=O)=O)c(S/C(=N\NS(=O)(=O)c2ccccc2)c2ccc(Cl)cc2)cc1Cl | > 100 | > 100 | > 100 | > 100 | 97.8 | > 100 | 50.6 | > 100 | > 100 | > 100 | > 100 | > 100 | 47.6 | > 100 | 38.9 | > 100 | 67.9 | > 100 |  |  |
| COc1ccccc1NC(=O)C1=C(C)NC(C)=C(C(=O)Nc2ccccc2OC)C1c1ccco1 |  | > 77 |  | > 24.1 |  | 23 |  | 8.51 |  | 14.7 |  |  |  | 9.02 |  | > 100 |  | 15.4 | 29.7 |  |
| OCC(O)C(O)C(O)c1nn(-c2ccc(F)cc2)c2nc3cc(Cl)c(Cl)cc3nc12 (centres undefined) |  | 81.9 |  | 55.6 |  | > 100 |  | > 100 |  | > 100 |  |  |  | 49.5 |  |  |  |  | 13.2 |  |
| COc1ccc(-c2csc(Nc3cccc(-c4csc(C)n4)c3)n2)cc1 | 2.14 | > 34.8 | 1.15 | > 14 | 0.636 | > 26.1 | 0.138 | 3.88 | 2.57 | > 50 | 0.534 | 4.19 | 0.489 | > 10.8 | 1.97 | > 50 | 1.19 | 7.85 |  |  |
